We go through ten compounds from PubChem BioAssay (NCI).

Common to all, as to experiment: DTP human tumour cell line panel, 48 h
The test system of assay [1] is CAKI-1 renal.
Assay [2] has as its system SR leukemia.
Assay [3] has as its system SN12C renal.
The test system of assay [4] is MOLT-4 leukemia.
Assay [5] relates to U251 CNS.
Assay [6] deals with K-562 leukemia.
The subject of assay [7] is SF-268 CNS.
The subject of assay [8] is MDA-MB-435.
Assay [9] relates to OVCAR-4 ovarian.
In assay [10] the test system is LOX IMVI melanoma.

Structures are written as SMILES. Values joined by “and” are separate entries in the source; they are usually repeats but may differ in a detail not shown here. Equal values may be shown once.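 Grown in 96-well plates, cells were treated for 48 hours with each compound at five concentrations. Insufficient inhibition: endpoint recorded as highest concentration tested. The concentration for 50% growth inhibition is given as GI50. TGI: concentration producing complete growth inhibition.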 Some results are limits rather than exact numbers.

`COc1ccc(-c2cc(-c3cc(OC)c(OC)c(OC)c3)c(C#N)c(N3CCOCC3)n2)cc1O`: the GI50 is 0.866 µM in [1]; 1.1 µM in assay [2]; 4.69 µM in assay [3]; 4.36 µM in assay [4]; 3.4 µM in assay [5]; 2.47 µM in assay [6]. Besides, the GI50 is 6 µM in assay [7], 3.28 µM in assay [8], 47.9 µM in [9] and 0.238 µM in assay [10]. Further, the TGI is greater than 100 µM in assay [1]; greater than 100 µM in assay [2]; greater than 100 µM in assay [3]; greater than 100 µM in [4]; greater than 94.1 µM in assay [5]; greater than 24.1 µM in assay [6]. In addition, the TGI in [7] is greater than 100 µM; in [8], greater than 43.7 µM; in assay [9] it was greater than 100 µM; in [10], 11.7 µM.
Consider `NC(=O)/C=C/NC(=O)/C=N\O`, for which the TGI in assay [1], in [2], in assay [3], in assay [4], in assay [5] and in assay [6] was greater than 100 µM throughout. In addition, the TGI in [7], in [8], in [9] and in assay [10] was greater than 100 µM throughout.
With `CCCCCC/C=C\CCCCCCCCCC1=CC(=O)C=C(OC)C1=O`, the TGI in [1] is 9.65 µM; in assay [2], 20.2 µM; in assay [3], 14.4 µM; in [4], greater than 100 µM; in assay [5], 13.6 µM; in [7], 19.3 µM. In addition, the values for the TGI in assay [8], in assay [9] and in [10] were 13.8 µM, 9.22 µM and 13.9 µM, respectively.
On to `COc1ccc(C(=O)/C=C/c2ccc(OCC(=O)N3CCN(c4ccccc4)CC3)cc2)cc1`, for which the TGI was greater than 100 µM in assay [1]; greater than 60.4 µM in assay [2]; greater than 100 µM in assay [3]; greater than 100 µM in [4]; greater than 83.5 µM in assay [5]; greater than 100 µM in assay [6]. Besides, the TGI in assay [7], in assay [8], in [9] and in [10] was greater than 100 µM in each case.
As to `CC(=O)OCC1O[C@@H]([S-])C(OC(C)=O)[C@H](OC(C)=O)[C@@H]1OC(C)=O.[Au+].c1ccc(CN2[CH-]N(Cc3ccccc3)C(c3ccccc3)=C2c2ccccc2)cc1`, the GI50 in [1] is 2 µM; in assay [2], 0.663 µM; in [3], 2.22 µM; in [4] it was 3.06 µM; in assay [5], 1.61 µM; in assay [8], 1.66 µM. The figures for the GI50 in [9] and in assay [10] were 1.4 µM and 1.9 µM, respectively. Besides, the TGI in [1] is 3.95 µM; in assay [2] it was 7.8 µM; in assay [3], 5.58 µM; in assay [4], 9.47 µM; in assay [5] it was 3.09 µM; in assay [8], 3.1 µM. Besides, the TGI in assay [9] came out at 3.15 µM; in assay [10], 3.86 µM.
Turning to `COc1cc2nc3cc([N+](=O)[O-])ccc3c(NCCCNCC(C)(C)O)c2cc1OC`, the GI50 in [1] is 1.95 µM; in assay [2] it was 0.321 µM; in [3], 0.232 µM; in [4] it was 0.372 µM; in [5] it was 0.303 µM; in assay [6], 0.299 µM. The GI50 in [7] is 0.308 µM; in [8], 0.4 µM; in [9], 0.198 µM; in [10], 0.208 µM. For the same compound, the TGI is 10.2 µM in assay [1]; 3.06 µM in [2]; 1.11 µM in assay [3]; 6.67 µM in assay [4]; 1.01 µM in assay [5]; 1.68 µM in assay [6]. Further, the TGI in assay [7] was 1.26 µM; in assay [8], 1.55 µM; in assay [9] it was 0.777 µM; in assay [10], 0.485 µM.
Turning to `O=C(O)c1ccc2c(c1)nc(Nc1cccc(Cl)c1)c1ccncc12`, the GI50 in assay [1] is 1.31 µM and 1.96 µM; in assay [2], 2.04 µM and 2.63 µM; in assay [3], 3.88 µM and 3.71 µM; in assay [4], 3.07 µM and 4.6 µM; in assay [5], 1.82 µM and 1.38 µM; in [6] it was 3.06 µM and 4.09 µM. The GI50 was 3.52 µM and 3.85 µM in assay [7]; 2.67 µM and 3.01 µM in assay [8]; 2.09 µM and 4.08 µM in assay [9]; 2.04 µM and 2.7 µM in assay [10]. The TGI was 5.73 µM and 7.22 µM in [1]; 6.3 µM and 9.2 µM in assay [2]; greater than 100 µM in assay [3]; 7.4 µM and > 10 µM in assay [4]; 15.7 µM and > 10 µM in [6]; greater than 77.4 µM in [7]. Also, the TGI is greater than 31.6 µM in assay [8]; 21.6 µM and > 10 µM in assay [9]; 10.7 µM and > 10 µM in assay [10].
With `CCc1nc(N)nc(N)c1-c1ccc(NCCc2ccccc2)c([N+](=O)[O-])c1`, the TGI is greater than 71.3 µM in [1]; 24 µM in assay [2]; greater than 71.3 µM in assay [3]; 33.3 µM in assay [4]; 47.3 µM in assay [5]; greater than 36.3 µM in assay [6]. Moreover, the TGI was greater than 62.5 µM in assay [7], greater than 73 µM in [8], 46.2 µM in assay [9] and greater than 100 µM in assay [10].
Consider `Cc1cc(C)nc(SC2=C(Nc3cccc(Cl)c3C)C(=O)N(Cc3ccccc3)C2=O)n1`, for which the GI50 in assay [1], in [2], in assay [4], in assay [5], in [6] and in assay [7] was greater than 160 µM in each case. The GI50 in assay [8], in assay [9] and in [10] was greater than 160 µM each time. Moreover, the TGI in assay [1], in assay [2], in [4], in [5], in assay [6] and in assay [7] was greater than 160 µM in each case. For the same compound, the TGI in [8], in assay [9] and in assay [10] was greater than 160 µM in each case.
On to `C[C@H]1C(Oc2ccc(O)cc2)OC2OC3(C)CCC4[C@H](C)CCC1C24OO3` (stereo not given in full), for which the GI50 in assay [1] was 18.5 µM; in [3], 11.7 µM; in assay [5] it was 11 µM; in assay [6] it was greater than 42 µM; in assay [7], 12.9 µM; in assay [8] it was 12.4 µM. The GI50 was 4.7 µM in assay [9] and 11.5 µM in assay [10]. For the same compound, the TGI in assay [1] is 40.8 µM; in assay [2] it was greater than 100 µM; in assay [3], 26 µM; in assay [4], greater than 63.6 µM; in assay [5], 25.8 µM; in [6] it was greater than 100 µM. For the same compound, the TGI in assay [7] was determined as 27.2 µM; in [8] it was 46.3 µM; in assay [9], 31 µM; in assay [10] it was 30.6 µM.
